Laboratory results published in ChEMBL document CHEMBL5032536, “Synthesis and Cytotoxic Activity of Lepidilines A-D: Comparison with Some 4,5-Diphenyl Analogues and Related Imidazole-2-thiones” (J Nat Prod, 2021).

What was measured:
[1] = Selectivity ratio of IC50 for cytotoxicity against human MCF7 cells to IC50 for cytotoxicity against human HL-60 cells; type: toxicity, cell-based; settings: MCF7 cells versus HL-60 cells, read-out: Ratio IC50
[2] = Selectivity ratio of IC50 for cytotoxicity against HUVEC cells to IC50 for cytotoxicity against human HL-60 cells; type: toxicity, cell-based; settings: HUVEC cells versus HL-60 cells, read-out: Ratio IC50

COc1cccc(Cn2c(C)c(C)[n+](Cc3ccccc3)c2C)c1
selectivity ratio [1]: > 100 | selectivity ratio [2]: > 100
